Experimental data from ChEMBL document CHEMBL3352491, “Novel semicarbazides and ureas of primaquine with bulky aryl or hydroxyalkyl substituents: synthesis, cytostatic and antioxidative activity” (Eur J Med Chem, 2014).

Test system: L1210
Experiment: Cytostatic activity against mouse L1210 cells assessed as growth inhibition after 3 to 4 days by MTT assay
Assay type: functional, cell-based
Details: not given; call rule not given here

Compound | IC50
COc1ccc(C(=NNC(=O)NCCCC(C)Nc2cc(OC)cc3cccnc23)c2ccc(OC)cc2)cc1 (stereo not given) | > 250 µM
COc1cc(NC(C)CCCNC(=O)NNC(=O)NCCCO)c2ncccc2c1 (stereo not given) | > 250 µM
COc1cc(NC(C)CCCNC(=O)NNC(=O)NCCO)c2ncccc2c1 (stereo not given) | > 250 µM

The next compounds have a lower IC50 than those just listed; values first:

IC50 | Compound
6.2 µM | COc1ccc(/C(=N/NC(=O)NNC(=O)NCCCC(C)Nc2cc(OC)cc3cccnc23)c2ccccc2)cc1 (stereo not given)
94 µM | COc1cc(NC(C)CCCNC(=O)NC(c2ccccc2)c2ccc(Cl)cc2)c2ncccc2c1 (stereo not given)

Test system: MCF7
Experiment: Cytostatic activity against human MCF7 cells assessed as growth inhibition after 3 to 4 days by MTT assay
Assay type: functional, cell-based
Details: not given

Compound | IC50
COc1ccc(C(=NNC(=O)NCCCC(C)Nc2cc(OC)cc3cccnc23)c2ccc(OC)cc2)cc1 (stereo not given) | 6 µM
COc1cc(NC(C)CCCNC(=O)NNC(=O)NCCCO)c2ncccc2c1 (stereo not given) | 13 µM
COc1cc(NC(C)CCCNC(=O)NNC(=O)NCCO)c2ncccc2c1 (stereo not given) | 13 µM

More lines, now with the values ahead:

IC50 | Compound
2 µM | COc1ccc(/C(=N/NC(=O)NNC(=O)NCCCC(C)Nc2cc(OC)cc3cccnc23)c2ccccc2)cc1 (stereo not given)
> 100 µM | COc1cc(NC(C)CCCNC(=O)NC(c2ccccc2)c2ccc(Cl)cc2)c2ncccc2c1 (stereo not given)

Test system: not listed separately
Experiment: Cytostatic activity against human MIAPaCa2 cells assessed as growth inhibition after 3 to 4 days by MTT assay
Assay type: functional, cell-based
Details: MIA PaCa-2

Compound | IC50
COc1ccc(C(=NNC(=O)NCCCC(C)Nc2cc(OC)cc3cccnc23)c2ccc(OC)cc2)cc1 (stereo not given) | > 250 µM
COc1cc(NC(C)CCCNC(=O)NNC(=O)NCCCO)c2ncccc2c1 (stereo not given) | ≥ 250 µM
COc1cc(NC(C)CCCNC(=O)NNC(=O)NCCO)c2ncccc2c1 (stereo not given) | ≥ 250 µM
COc1ccc(/C(=N/NC(=O)NNC(=O)NCCCC(C)Nc2cc(OC)cc3cccnc23)c2ccccc2)cc1 (stereo not given) | 13 µM
COc1cc(NC(C)CCCNC(=O)NC(c2ccccc2)c2ccc(Cl)cc2)c2ncccc2c1 (stereo not given) | 181 µM

Test system: CCRF-CEM
Experiment: Cytostatic activity against human CEM cells assessed as growth inhibition after 3 to 4 days by MTT assay
Assay type: functional, cell-based
Details: not given

Compound | IC50
COc1ccc(C(=NNC(=O)NCCCC(C)Nc2cc(OC)cc3cccnc23)c2ccc(OC)cc2)cc1 (stereo not given) | > 250 µM
COc1cc(NC(C)CCCNC(=O)NNC(=O)NCCCO)c2ncccc2c1 (stereo not given) | > 250 µM
COc1cc(NC(C)CCCNC(=O)NNC(=O)NCCO)c2ncccc2c1 (stereo not given) | > 250 µM

Continued, values first:

IC50 | Compound
7.4 µM | COc1ccc(/C(=N/NC(=O)NNC(=O)NCCCC(C)Nc2cc(OC)cc3cccnc23)c2ccccc2)cc1 (stereo not given)
86 µM | COc1cc(NC(C)CCCNC(=O)NC(c2ccccc2)c2ccc(Cl)cc2)c2ncccc2c1 (stereo not given)

Test system: not listed separately
Experiment: Antioxidant activity assessed as DPPH scavenging activity at 100 uM after 20 mins by spectrophotometry
Assay type: physicochemical
Details: not given

Compound | Activity
COc1ccc(C(=NNC(=O)NCCCC(C)Nc2cc(OC)cc3cccnc23)c2ccc(OC)cc2)cc1 (stereo not given) | 5%
COc1cc(NC(C)CCCNC(=O)NNC(=O)NCCCO)c2ncccc2c1 (stereo not given) | 9%
COc1cc(NC(C)CCCNC(=O)NNC(=O)NCCO)c2ncccc2c1 (stereo not given) | Not Active

Further lines, results first:

Activity | Compound
47% | COc1ccc(/C(=N/NC(=O)NNC(=O)NCCCC(C)Nc2cc(OC)cc3cccnc23)c2ccccc2)cc1 (stereo not given)
12% | COc1cc(NC(C)CCCNC(=O)NC(c2ccccc2)c2ccc(Cl)cc2)c2ncccc2c1 (stereo not given)

Test system: SW-620
Experiment: Cytostatic activity against human SW620 cells assessed as growth inhibition after 3 to 4 days by MTT assay
Assay type: functional, cell-based
Details: not given

Compound | IC50
COc1ccc(C(=NNC(=O)NCCCC(C)Nc2cc(OC)cc3cccnc23)c2ccc(OC)cc2)cc1 (stereo not given) | > 100 µM
COc1cc(NC(C)CCCNC(=O)NNC(=O)NCCCO)c2ncccc2c1 (stereo not given) | > 100 µM
COc1cc(NC(C)CCCNC(=O)NNC(=O)NCCO)c2ncccc2c1 (stereo not given) | > 100 µM

Results, then the compound that gave them:

IC50 | Compound
7 µM | COc1ccc(/C(=N/NC(=O)NNC(=O)NCCCC(C)Nc2cc(OC)cc3cccnc23)c2ccccc2)cc1 (stereo not given)
> 100 µM | COc1cc(NC(C)CCCNC(=O)NC(c2ccccc2)c2ccc(Cl)cc2)c2ncccc2c1 (stereo not given)

Test system: HeLa
Experiment: Cytostatic activity against human HeLa cells assessed as growth inhibition after 3 to 4 days by MTT assay
Assay type: functional, cell-based
Details: not given

Compound | IC50
COc1ccc(C(=NNC(=O)NCCCC(C)Nc2cc(OC)cc3cccnc23)c2ccc(OC)cc2)cc1 (stereo not given) | > 250 µM
COc1cc(NC(C)CCCNC(=O)NNC(=O)NCCCO)c2ncccc2c1 (stereo not given) | > 250 µM
COc1cc(NC(C)CCCNC(=O)NNC(=O)NCCO)c2ncccc2c1 (stereo not given) | 196 µM

Next, values leading:

IC50 | Compound
18 µM | COc1ccc(/C(=N/NC(=O)NNC(=O)NCCCC(C)Nc2cc(OC)cc3cccnc23)c2ccccc2)cc1 (stereo not given)
186 µM | COc1cc(NC(C)CCCNC(=O)NC(c2ccccc2)c2ccc(Cl)cc2)c2ncccc2c1 (stereo not given)

Biological target: Lipoxygenase (Glycine max, UniProt Q39829)
Experiment: Inhibition of soybean LOX using sodium linoleate as substrate by spectrophotometry
Details: not given

IC50 | Compound
Not Active | COc1cc(NC(C)CCCNC(=O)NNC(=O)NCCCO)c2ncccc2c1 (stereo not given)
Not Active | COc1cc(NC(C)CCCNC(=O)NNC(=O)NCCO)c2ncccc2c1 (stereo not given)

Same assay, conditions: read-out: IC50

IC50 | Compound
60 µM | COc1ccc(C(=NNC(=O)NCCCC(C)Nc2cc(OC)cc3cccnc23)c2ccc(OC)cc2)cc1 (stereo not given)
60.5 µM | COc1ccc(/C(=N/NC(=O)NNC(=O)NCCCC(C)Nc2cc(OC)cc3cccnc23)c2ccccc2)cc1 (stereo not given)
57.9 µM | COc1cc(NC(C)CCCNC(=O)NC(c2ccccc2)c2ccc(Cl)cc2)c2ncccc2c1 (stereo not given)

Test system: not listed separately
Experiment: Antioxidant activity assessed as DPPH scavenging activity at 100 uM after 60 mins by spectrophotometry
Assay type: physicochemical
Details: 1 h

Compound | Activity
COc1ccc(C(=NNC(=O)NCCCC(C)Nc2cc(OC)cc3cccnc23)c2ccc(OC)cc2)cc1 (stereo not given) | 14%
COc1cc(NC(C)CCCNC(=O)NNC(=O)NCCCO)c2ncccc2c1 (stereo not given) | 20%
COc1cc(NC(C)CCCNC(=O)NNC(=O)NCCO)c2ncccc2c1 (stereo not given) | 20%

Next, values leading:

Activity | Compound
64% | COc1ccc(/C(=N/NC(=O)NNC(=O)NCCCC(C)Nc2cc(OC)cc3cccnc23)c2ccccc2)cc1 (stereo not given)
24% | COc1cc(NC(C)CCCNC(=O)NC(c2ccccc2)c2ccc(Cl)cc2)c2ncccc2c1 (stereo not given)

Test system: not listed separately
Experiment: Antioxidant activity assessed as inhibition of lipid peroxidation at 100 uM by spectrophotometry
Assay type: physicochemical
Details: not given

Compound | inhibition (INH)
COc1ccc(C(=NNC(=O)NCCCC(C)Nc2cc(OC)cc3cccnc23)c2ccc(OC)cc2)cc1 (stereo not given) | 98%
COc1cc(NC(C)CCCNC(=O)NNC(=O)NCCCO)c2ncccc2c1 (stereo not given) | 45%
COc1cc(NC(C)CCCNC(=O)NNC(=O)NCCO)c2ncccc2c1 (stereo not given) | 27%

Now from value to compound:

inhibition (INH) | Compound
78% | COc1ccc(/C(=N/NC(=O)NNC(=O)NCCCC(C)Nc2cc(OC)cc3cccnc23)c2ccccc2)cc1 (stereo not given)
90% | COc1cc(NC(C)CCCNC(=O)NC(c2ccccc2)c2ccc(Cl)cc2)c2ncccc2c1 (stereo not given)

Test system: not listed separately
Experiment: Cytostatic activity against human H460 cells assessed as growth inhibition after 3 to 4 days by MTT assay
Assay type: functional, cell-based
Details: NCI-H460

Compound | IC50
COc1ccc(C(=NNC(=O)NCCCC(C)Nc2cc(OC)cc3cccnc23)c2ccc(OC)cc2)cc1 (stereo not given) | > 100 µM
COc1cc(NC(C)CCCNC(=O)NNC(=O)NCCCO)c2ncccc2c1 (stereo not given) | > 100 µM
COc1cc(NC(C)CCCNC(=O)NNC(=O)NCCO)c2ncccc2c1 (stereo not given) | > 100 µM
COc1ccc(/C(=N/NC(=O)NNC(=O)NCCCC(C)Nc2cc(OC)cc3cccnc23)c2ccccc2)cc1 (stereo not given) | 7 µM
COc1cc(NC(C)CCCNC(=O)NC(c2ccccc2)c2ccc(Cl)cc2)c2ncccc2c1 (stereo not given) | > 100 µM

Test system: not listed separately
Experiment: Cytostatic activity against human Molt4/C8 cells assessed as growth inhibition after 3 to 4 days by MTT assay
Assay type: functional, cell-based
Details: MOLT-4

Compound | IC50
COc1ccc(C(=NNC(=O)NCCCC(C)Nc2cc(OC)cc3cccnc23)c2ccc(OC)cc2)cc1 (stereo not given) | > 250 µM
COc1cc(NC(C)CCCNC(=O)NNC(=O)NCCCO)c2ncccc2c1 (stereo not given) | > 250 µM
COc1cc(NC(C)CCCNC(=O)NNC(=O)NCCO)c2ncccc2c1 (stereo not given) | > 250 µM
COc1ccc(/C(=N/NC(=O)NNC(=O)NCCCC(C)Nc2cc(OC)cc3cccnc23)c2ccccc2)cc1 (stereo not given) | 12 µM
COc1cc(NC(C)CCCNC(=O)NC(c2ccccc2)c2ccc(Cl)cc2)c2ncccc2c1 (stereo not given) | ≥ 250 µM
